For assay [1], the system named is shock-induced aggressive behaviour. Kind of assay: Tedeschi test. The assay is classed as in vivo. The following applies: Mus musculus, ip; mice; i.p.; shock-induced aggression; read-out: ED50 (dose at which aggressive behaviour is reduced by 50%). From the text: In mice, anxiolytics bring about a reduction in the shock-induced aggressive behaviour. The ED50 value indicates the dose at which the aggressive behaviour is reduced by 50% within the period of the experiment.
Lit.: Tedeschi et all, J. Pharmacol. Exp. Ther. 129, 28-34, 1954.

The test system of assay [2] is Passive avoidance behaviour. As to the kind of experiment: Passive avoidance behaviour. The following applies: Rattus norvegicus, ip; rats; i.p.; electric shock, time to re-entry of darkened box; read-out: ED50 (text: minimum effective dose (MED)). The assay is classed as in vivo. The source says:
After entering a darkened box, rats receive an electric shock and thus avoid reentering the box. Rats under the influence of anxiolytics enter the box in spite of having experience the shock. The time up to entry into the box is timed with a stopwatch. The minimum effective dose (MED) in mg/kg is reported.

Assay [3] deals with ptosis induced by tetrabenazine. Kind of assay: Tetrabenazine antagonism. The assay is classed as in vivo. The note with it: Mus musculus, ip; mice; i.p.; tetrabenazine 20 mg/kg i.p.; read-out: ED50 (dose at which tetrabenazine-induced ptosis is reduced to 50%). The method, then:
Antidepressants antagonise the ptosis induced by tetrabenazine in mice. The ED50 value indicates the dose at which the ptosis induced by tetrabenazine (20 mg/kg i.p.) is reduced to 50%. Lit.: J. L. Howard et al., in: Antidepressants; Neuochemical, Behavioral and Clinical Perspectives, edited by S. J. Enna et al., Raven Press, New York, pages 117-120, 1981.

Assay [4] addresses T1, serotonin receptors from calf hippocampus (Bos taurus, UniProt F6Q2H9).
T1 construct: serotonin receptors from calf hippocampus; from tissue; host or cells: calf hippocampus
T1 sequence (F6Q2H9 1-422): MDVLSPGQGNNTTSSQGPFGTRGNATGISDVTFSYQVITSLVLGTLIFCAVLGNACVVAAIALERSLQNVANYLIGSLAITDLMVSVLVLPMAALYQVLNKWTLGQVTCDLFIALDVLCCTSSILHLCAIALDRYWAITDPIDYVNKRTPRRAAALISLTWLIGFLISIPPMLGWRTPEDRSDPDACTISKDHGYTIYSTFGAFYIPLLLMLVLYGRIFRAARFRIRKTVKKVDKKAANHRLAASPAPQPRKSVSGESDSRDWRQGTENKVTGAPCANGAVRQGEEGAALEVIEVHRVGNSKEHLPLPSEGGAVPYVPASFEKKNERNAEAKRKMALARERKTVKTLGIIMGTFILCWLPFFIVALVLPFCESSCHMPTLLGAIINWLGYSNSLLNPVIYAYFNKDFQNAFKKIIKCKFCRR
Kind of assay: Serotonin receptor binding (3H-serotonin displacement). The following applies: read-out: Ki (concentration at which 50% of the 3H-serotonin employed is displaced). The source says: The direct or indirect effect on the serotonergic system by, for example, anxiolytic, tranquillising, neuroleptic or antidepressant active compounds is known. Substances according to the invention interact specifically with serotonin receptors from calf hippocampus. The concentration at which 50% of the ^3 H-serotonin employed is displaced is reported (Ki values). Lit.: Peroutka, S. J. and S. H. Snyder, Molec. Pharmacol. 16, 687, 1979.

Assay [5] has as its system amphetamine-induced stereotypic behaviour. Kind of assay: Amphetamine potentiation. The assay is classed as in vivo. The note with it: ip; rat; i.p.; 2 mg/kg DL-amphetamine sulphate i.v.; read-out: ED50 (dose at which amphetamine-induced behaviour is potentiated by 50%). The method, then: Substances having antidepressant effects potentiate the amphetamine-inducedstereotypic behaviour of the rat. The ED50 value which is given is the dose at which the behaviour induced after i.v. administration of 2 mg/kg DL-amphetamine sulphate is potentiated by 50%. Lit.: J. L. Howard et al., in: Antidepressants: Neurochemical, Behavioral and Clinical Perspectives, edited by S. J. Enna et al., Raven Press, New York, Pages 107-120, 1981.

The subject of the next assay is immobility. Kind of assay: Behavioral Despair. The assay is classed as in vivo. The following applies: Rattus norvegicus, ip; rats; i.p.; glass cylinder filled with water; read-out: ED50 (dose at which immobility is reduced by 50%). From the text: When placed in a glass cylinder filled with water, rats initially show vigorous swimming movements which alternate with phases of immobility which increase in length. Many antidepressants of a variety of chemical structures shorten the duration of this immobility. The ED50 value indicates the dose of a test substance at which the immobility during the period of the experiment is reduced by 50%.
Lit.: R. D. Porsolt et al., Europ. J. Pharmacol. 47, 379-391, 1978.

Structures can show the parent of a compound that is named as a salt.

One may read the ED50 as the dose at which the effect has come halfway, by size or by number of responders. For `O=C1c2ccccc2C(=O)N1CC(O)CN1CCN(c2ncc(-c3ccc(Cl)cc3)cn2)CC1` (stereo not drawn) [Example 18, 2-(3-(4-(5-(4-chlorophenyl)-2-pyrimidinyl)-1-piperazinyl)-2-hydroxypropyl)isoindole-1,3(2H)dione], the ED50 in assay [1] came to 9 mg/kg; in assay [3] it was 21 mg/kg. In addition, the minimal effective dose in assay [2] was determined as 1 mg/kg. On to `O=C1c2ccc(Cl)cc2S(=O)(=O)N1CCCCN1CCN(c2ncccn2)CC1` [Example 11, 2-(4-(4-(2-Pyrimidinyl)-1-piperazinyl)butyl)-6-chloro-1,2-benzisothiazol-3(2H)one 1,1-dioxide], for which the IC50 in assay [4] came to 30 nM. For the same molecule, the minimal effective dose in assay [2] was 1 mg/kg. Turning to `Fc1cccc(Cl)c1-c1cnc(N2CCNCC2)nc1` [Example 61, 1-(5-(2-Fluoro-6-chlorophenyl)-2-pyrimidinyl)piperazine], in assay [5], the ED50 was 5 mg/kg. Consider `O=C1c2ccccc2C(=O)N1CCCCN1CCN(c2ncc(-c3c(F)cccc3Cl)cn2)CC1` [Example 8, 2-(4-(4-(5-(2-Chloro-6-fluorophenyl)-2-pyrimidinyl)-1-piperazinyl)butyl)-isoindole-1,3(2H)dione], for which the ED50 turned out to be 12 mg/kg in assay [1], 33 mg/kg in the assay on immobility and 1 mg/kg in assay [5]. With `O=C1c2ccccc2C(=O)N1CCCN1CCN(c2ncc(-c3ccccc3)cn2)CC1` [Example 6, 2-(3-(4-(5-Phenyl-2-pyrimidinyl)-1-piperazinyl)propyl)isoindole-1,3(2H)dione], the ED50 in assay [1] was 15 mg/kg; in assay [3], 40 mg/kg. As to `O=C1c2ccccc2S(=O)(=O)N1CCCCN1CCN(c2ncccn2)CC1` [Example 7, 2-(4-(4-(2-Pyrimidinyl)-1-piperazinyl)butyl)-1,2-benzisothiazol-3-(2H)one 1,1-dioxide], the ED50 in assay [1] was 5 mg/kg. Also, in assay [2], the minimal effective dose is 0.5 mg/kg.

As for `O=C1c2ccccc2C(=O)N1CCCCN1CCN(c2ncccn2)CC1` [Example 1, 2-(4-(4-(2-pyrimidinyl)-1-piperazinyl)butyl)isoindole-1,3(2H)dione], the IC50 in assay [4] stood at 10 nM. In addition, in assay [5], the ED50 came out at 18 mg/kg. On to `O=C1c2ccccc2C(=O)N1CCN1CCN(c2ncc(-c3ccc(Cl)cc3)cn2)CC1` [Example 15, 1-(2-(4-(5-(4-Chlorophenyl)-2-pyrimidinyl)-1-piperazinyl)ethyl)isoindole-1,3(2H)dione], for which the ED50 in assay [1] was 6 mg/kg. Consider `c1ccc2c(-c3cnc(N4CCNCC4)nc3)c[nH]c2c1` [Example 64, 1-(5-(3-Indolyl)-2-pyrimidinyl)piperazine], for which the ED50 in assay [5] was found to be 2 mg/kg; in assay [3], 18 mg/kg. `CN1C(=O)N(CCCN2CCN(c3ncccn3)CC2)S(=O)(=O)c2ccccc21` [Example 36, 2-(3-(4-(2-Pyrimidinyl)-1-piperazinyl)propyl)-4-methyl-1,2,4-benzothiadiazin-3(4H)one 1,1-dioxide]: in assay [4], the IC50 amounted to 9 nM.

Regarding `CN1C(=O)N(CCCCN2CCN(c3ncccn3)CC2)S(=O)(=O)c2ccccc21` [Example 37, 2-(4-(4-(2-Pyrimidinyl)-1-piperazinyl)butyl)-4-methyl-1,2,4-benzothiadiazin-3(4H)one 1,1-dioxide], in assay [4], the IC50 was 80 nM. For the molecule `O=C1Cc2ccccc2C(=O)N1CCCCN1CCN(c2ncccn2)CC1` [Example 19, 2-(4-(4-(2-pyrimidinyl)-1-piperazinyl)butyl)isoquinoline-1,3(2H,4H)dione], in assay [4], the IC50 came to 30 nM.

Turning to `c1ccc(-c2cnc(N3CCNCC3)nc2)cc1` [Example 60, 1-(5-phenyl-2-pyrimidinyl)piperazine], the values for the 50% effective dose (ED50) in assay [5] and in assay [3] were 16 mg/kg and 5 mg/kg, respectively.

Consider `NCCCCN1CCN(c2ncc(-c3c(F)cccc3Cl)cn2)CC1` [Example 50, 1-(4-Aminobutyl)-4-(5-(2-fluoro-6-chlorophenyl)-2-pyrimidinyl)piperazinehydrochloride], for which the ED50 is 32 mg/kg in assay [1] and 3 mg/kg in assay [5].

As for `NCCCCN1CCN(c2ncc(-c3ccccc3)cn2)CC1` [Example 49, 1-(4-aminobutyl)-5-(5-phenyl-2-phenyl-2-pyrimidinyl)piperazine], the ED50 in assay [5] came out at 3 mg/kg.

Take `COc1ccc(-c2cnc(N3CCN(CCCCN4C(=O)Cc5ccccc5C4=O)CC3)nc2)cc1OC` [Example 20, 2-(4-(4-(5-(3,4-Dimethoxyphenyl)-2-pyrimidinyl)-1-piperazinyl)butyl)-isoquinoline-1,3(2H,4H)dione]: the ED50 in assay [5] was found to be 5 mg/kg.

Take `O=C1Nc2ccccc2S(=O)(=O)N1CCCN1CCN(c2ncccn2)CC1` [Example 32, 2-(3-(4-(2-Pyrimidinyl)-1-piperazinyl)propyl)1,2,4-benzothiadiazin-3(4H)on 1,1-dioxide]: the IC50 in assay [4] came out at 10 nM. With `O=C1c2cc(Cl)ccc2S(=O)(=O)N1CCCCN1CCN(c2ncccn2)CC1` [Example 10], the IC50 in assay [4] was determined as 14 nM. For the same molecule, in assay [2], the minimal effective dose is 1 mg/kg. As to `O=C1Nc2ccccc2S(=O)(=O)N1CCCCN1CCN(c2ncccn2)CC1` [Example 33, 2-(4-(4-(2-Pyrimidinyl)-1-piperazinyl)butyl)-1,2,4-benzothiadiazin-3(4H)one 1,1-dioxide], the IC50 in assay [4] is 60 nM. Regarding `COc1ccc(-c2cnc(N3CCN(CCCCN4C(=O)c5ccccc5C4=O)CC3)nc2)cc1OC` [Example 12, 2-(4-(4-(5-(3,4-Dimethoxyphenyl)- -2-pyrimidinyl)-1-piperazinyl)butyl)-isoindole-1,3(2H)dione], the ED50 in assay [1] stood at 16 mg/kg; in the assay on immobility, 50 mg/kg. For the molecule `O=C1c2ccccc2C(=O)N1CCCCN1CCN(c2ncc(-c3ccccc3)cn2)CC1` [Example 4, 2-(4-(4-(5-phenyl-2-pyrimidinyl)-1-piperazinyl)butyl)isoindole-1,3(2H)dion], the ED50 in assay [1] came to 20 mg/kg; in the assay on immobility, 12 mg/kg; in assay [5], 3 mg/kg. In addition, the minimal effective dose in assay [2] was 1 mg/kg. Turning to `O=C1c2ccc([N+](=O)[O-])cc2S(=O)(=O)N1CCCCN1CCN(c2ncccn2)CC1` [Example 24, 2-(4-(4-(2-Pyrimidinyl)-1-piperazinyl)butyl)-6-nitro-1,2-benzisothiazol-3(2H)one 1,1-dioxide], in assay [4], the IC50 was 20 nM. As for `CCOC(=O)N1CCN(c2ncc(-c3ccccc3)cn2)CC1` [Example 54, ethyl 4-(5-phenyl-2-pyrimidinyl)-1-piperazinecarboxylate], the ED50 is 10 mg/kg in assay [1], 20 mg/kg in the assay with immobility and 0.4 mg/kg in assay [5]. Also, in assay [2], the minimal effective dose is 5 mg/kg.

The record behind these values is US5314884A, “2-pyrimidinyl-1-piperazine derivatives processes for their preparation and medicaments containing them” (Troponwerke GmbH & Co., priority 1983, dated 1994).
